Measurements taken from patent US9587471B2, “Controlling bioavailability of nutrient additions in subsurface formations” (E I DU PONT DE NEMOURS AND COMPANY, priority 2008, dated 2017).

Columns and labels:
Assay type in all cases: cell-based
[1] = system: Pseudomonas stutzeri strain LH4:15, ATCC PTA-8823; test: Aerobic growth response (turbidity) to varying concentrations of potential microbial nutrients; details: for concentration at which microbial growth was inhibited: aerobic growth at 30° C. On growth response (turbidity): key: − = no turbidity; + = slight turbidity; ++ = moderate to heavy turbidity.
Procedure: (§1) Typically cells were grown at a temperature in the range of about 25° C. to about 40° C. in an appropriate medium.
Additional potential microbial nutrients were added at various concentrations as outlined in Table 1. Growth was monitored visually with positive growth indicated by moderate to heavy turbidity.

[2] = system: Pseudomonas stutzeri strain LH4:15 (ATCC PTA-8823); test: Aerobic growth response (turbidity) to varying concentrations of industrial preservatives;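 further: single plus means slight turbidity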
Procedure: as §1
Pseudomonas stutzeri strain LH4:15 (ATCC PTA-8823) was grown as outlined in Example 1. Various preservatives commonly used in the food, cosmetic, and water treatment industries were tested for their inhibitory effect at various concentrations (Table 2). Growth was monitored visually and positive growth was indicated by moderate to heavy turbidity.

[3] = system: Pseudomonas stutzeri strain LH4:15 (ATCC PTA-8823); test: Anaerobic growth and survival: biocidal versus biostatic inhibition; details: for change in Log cell number: day 0 vs day 7, anaerobic; for Final anaerobic vial OD: starting OD600 = 0.05
Procedure: In this invention, the anaerobic growth and survival was tested in 20 ml crimp-capped anaerobic vials, using a complete nutrient medium of the following composition: Na2HPO4.7H2O, 1.4 g/L, KH2PO4, 0.69 g/L, NH4Cl, 0.5 g/L, MgSO4.7H2O, 0.1/L g, SL-10 trace metals, 10 ml, NaCl, 7.5 g/L, NaHCO3, 7.2 g/L, sodium nitrate, 12 g/L, Na lactate, 7 g/L, yeast extract, 10 mg/L, pH 7.3-7.8.
The anaerobic growth and survival was tested as outlined above. […] Vials were inoculated using an overnight aerobic culture of Pseudomonas stutzeri strain LH4:15 (ATCC PTA-8823) in Luria Bertani medium (LB, Mediatech Inc., Herndon, Va.,) at a final OD600 of 0.05. Within 2 hours of inoculation, serial dilutions from each treatment vial were made into aerobic LB medium to determine the cell numbers at Day 0. After approximately 24 hours cell numbers were estimated by noting the highest positive dilution based on the presence or absence of turbidity in dilutions of 10^−1 to 10^−11 in the serial dilution plates. Cell numbers on Day 0 and Day 7 were measured to obtain a survival estimate during inhibitor exposure.

[4] = 10 g/L, 120 hours of incubation
[5] = 20 g/L, 120 hours of incubation
[6] = 50 g/L, 120 hours of incubation
[7] = 100 g/L, 24 hours of incubation
[8] = 100 g/L, 48 hours of incubation
[9] = 100 g/L, 120 hours of incubation
[10] = 200 g/L, 24 hours of incubation
[11] = 200 g/L, 48 hours of incubation
[12] = 200 g/L, 120 hours of incubation

| Structure (SMILES) | Growth response (turbidity) ([1]; 10 g/L, 24 hours of incubation) | Growth response (turbidity) ([1]; 10 g/L, 48 hours of incubation) | Growth response (turbidity) [1, 4] | Growth response (turbidity) ([1]; 20 g/L, 24 hours of incubation) | Growth response (turbidity) ([1]; 20 g/L, 48 hours of incubation) | Growth response (turbidity) [1, 5] | Growth response (turbidity) ([1]; 50 g/L, 24 hours of incubation) | Growth response (turbidity) ([1]; 50 g/L, 48 hours of incubation) | Growth response (turbidity) [1, 6] | Growth response (turbidity) [1, 7] | Growth response (turbidity) [1, 8] | Growth response (turbidity) [1, 9] | Growth response (turbidity) [1, 10] | Growth response (turbidity) [1, 11] | Growth response (turbidity) [1, 12] | concentration at which microbial growth was inhibited [1] [g/L] | change in Log cell number ([3]; 50 g/L) | Final anaerobic vial OD ([3]; 50 g/L) | change in Log cell number ([3]; 100 g/L) | Final anaerobic vial OD ([3]; 100 g/L) | further results |
| --- | --- | --- | --- | --- | --- | --- | --- | --- | --- | --- | --- | --- | --- | --- | --- | --- | --- | --- | --- | --- | --- |
| OCC(O)CO [Glycerol] | ++ | ++ | ++ | ++ | ++ | ++ | ++ | ++ | ++ | ++ | ++ | ++ | − | − | − |  |  |  |  |  |  |
| OCCOc1ccccc1 [2-phenoxy-ethan-1-ol] |  |  |  |  |  |  |  |  |  |  |  |  |  |  |  |  |  |  |  |  | growth (turbidity) ([2]; 1 g/L): ++; growth (turbidity) ([2]; 2 g/L): ++; growth (turbidity) ([2]; 3 g/L): ++; growth (turbidity) ([2]; 4 g/L): − |
| CCO [Ethanol] | ++ | ++ | ++ | + | ++ | ++ | − | − | − |  |  |  |  |  |  |  |  |  |  |  | Growth response (turbidity) ([1]; 0.05 g/L, 24 hours of incubation): ++; Growth response (turbidity) ([1]; 0.05 g/L, 48 hours of incubation): ++; Growth response (turbidity) ([1]; 0.05 g/L, 120 hours of incubation): ++; Growth response (turbidity) ([1]; 0.1 g/L, 24 hours of incubation): ++; Growth response (turbidity) ([1]; 0.1 g/L, 48 hours of incubation): ++; Growth response (turbidity) ([1]; 0.1 g/L, 120 hours of incubation): ++; Growth response (turbidity) ([1]; 0.5 g/L, 24 hours of incubation): ++; Growth response (turbidity) ([1]; 0.5 g/L, 48 hours of incubation): ++; Growth response (turbidity) ([1]; 0.5 g/L, 120 hours of incubation): ++; Growth response (turbidity) ([1]; 1 g/L, 24 hours of incubation): ++; Growth response (turbidity) ([1]; 1 g/L, 48 hours of incubation): ++; Growth response (turbidity) ([1]; 1 g/L, 120 hours of incubation): ++ |
| O=[N+]([O-])[O-].[Na+] [NaNO3, sodium nitrate] | ++ | ++ | ++ | ++ | ++ | ++ | − | + | ++ | − | − | − | − | − | − | ≥ 100 | −1 | 0.06 | −2 | 0.02 | change in Log cell number ([3]; 80 g/L): 0; Final anaerobic vial OD ([3]; 80 g/L): 0.03; change in Log cell number ([3]; 200 g/L): −6; Final anaerobic vial OD ([3]; 200 g/L): 0.03; change in Log cell number ([3]; 400 g/L): −5; Final anaerobic vial OD ([3]; 400 g/L): 0.03 |
| CC(O)C(=O)[O-].[Na+] (stereo not shown) [Na lactate, sodium lactate] | ++ | ++ | ++ | ++ | ++ | ++ | − | − | − | − | − | − | − | − | − |  |  |  |  |  |  |
| NC(N)=O [Urea] | ++ | ++ | ++ | ++ | ++ | ++ | − | − | − | − | − | − | − | − | − | ≥ 50 | −1 | 0.03 | −1 | 0.02 | change in Log cell number ([3]; 20 g/L): −1; Final anaerobic vial OD ([3]; 20 g/L): 0.2; change in Log cell number ([3]; 30 g/L): −1; Final anaerobic vial OD ([3]; 30 g/L): 0.13; change in Log cell number ([3]; 200 g/L): Dead; Final anaerobic vial OD ([3]; 200 g/L): 0.01; change in Log cell number ([3]; 300 g/L): Dead; Final anaerobic vial OD ([3]; 300 g/L): 0.01 |
